Measurements published in patent US11840686B2, “Modulation of prekallikrein (PKK) expression” (Ionis Pharmaceuticals, Inc., priority 2013, dated 2023).
Strand notation (5' to 3'): a small letter for the sugar, then the base; units joined by * are phosphorothioate-linked, units joined directly phosphodiester-linked; [ ] holds rarer units or linkages, { } end groups; capitals alone tell only the bases. e = 2'-O-(2-methoxyethyl) (MOE); k = constrained ethyl (cEt); [5mC] = 5-methylcytosine; d = 2'-deoxy (DNA)

Test system: human PKK mRNA
Assay: Antisense inhibition of human PKK mRNA in HepaRG cells, 1,000 nM, MOE/deoxy/cEt oligonucleotides (Example 3)
Type: cell-based
Conditions: HepaRG cells, electroporation with 1,000 nM antisense oligonucleotide, approximately 24 hours, primer probe set RTS3454, relative to untreated control cells; experiment of Table 24
Method in brief: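 Readout is percent PKK mRNA reduction against untreated controls, by real-time PCR (RTS3454) adjusted for total RNA via RIBOGREEN. Oligonucleotides, phosphorothioate gapmers of 16 nucleosides with cEt, MOE and deoxy sugars, were delivered at 1,000 nM by electroporation to 20,000 HepaRG cells/well for roughly 24 h.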

Substance	% inhibition [%]
548001 (antisense eA*e[5mC]*k[5mC]*dA*dG*dA*dG*d[5mC]*dT*d[5mC]*d[5mC]*d[5mC]*dT*kT*kG*eT) [compound 548001]	64
548002 (antisense eA*eA*k[5mC]*d[5mC]*dA*dG*dA*dG*d[5mC]*dT*d[5mC]*d[5mC]*d[5mC]*kT*kT*eG) [compound 548002]	56
548003 (eT*eA*kA*d[5mC]*d[5mC]*dA*dG*dA*dG*d[5mC]*dT*d[5mC]*d[5mC]*k[5mC]*kT*eT; antisense) [compound 548003]	66
548006 (e[5mC]*eA*kA*dA*dG*dA*dG*dT*dA*dA*d[5mC]*d[5mC]*dA*kG*kA*eG; antisense) [compound 548006]	54
548007 (e[5mC]*eT*k[5mC]*dA*dA*dA*dG*dA*dG*dT*dA*dA*d[5mC]*k[5mC]*kA*eG; antisense) [compound 548007]	70
548008 (eT*e[5mC]*kT*d[5mC]*dA*dA*dA*dG*dA*dG*dT*dA*dA*k[5mC]*k[5mC]*eA; antisense) [compound 548008]	71
548009 (eG*eT*kT*dA*d[5mC]*dA*d[5mC]*dA*dA*dT*d[5mC]*dT*d[5mC]*kA*kA*eA; antisense) [compound 548009]	47
548011 (e[5mC]*e[5mC]*kA*dG*dT*dG*dT*dT*dA*d[5mC]*dA*d[5mC]*dA*kA*kT*e[5mC]; antisense) [compound 548011]	14
548012 (eT*e[5mC]*k[5mC]*d[5mC]*d[5mC]*dA*dG*dT*dG*dT*dT*dA*d[5mC]*kA*k[5mC]*eA; antisense) [compound 548012]	3
548013 (eG*eT*k[5mC]*d[5mC]*d[5mC]*d[5mC]*dA*dG*dT*dG*dT*dT*dA*k[5mC]*kA*e[5mC]; antisense) [compound 548013]	37
548014 (eT*eG*kT*d[5mC]*d[5mC]*d[5mC]*d[5mC]*dA*dG*dT*dG*dT*dT*kA*k[5mC]*eA; antisense) [compound 548014]	31
548015 (eT*eT*kG*dT*d[5mC]*d[5mC]*d[5mC]*d[5mC]*dA*dG*dT*dG*dT*kT*kA*e[5mC]; antisense) [compound 548015]	50
548016 (eA*eA*kG*dA*dG*dT*dT*dT*dG*dT*dT*d[5mC]*d[5mC]*kT*k[5mC]*e[5mC]; antisense) [compound 548016]	55
548017 (e[5mC]*eA*kA*dG*dA*dA*dG*dA*dG*dT*dT*dT*dG*kT*kT*e[5mC]; antisense) [compound 548017]	3
548018 (e[5mC]*e[5mC]*kA*dA*dG*dA*dA*dG*dA*dG*dT*dT*dT*kG*kT*eT; antisense) [compound 548018]	22
548019 (e[5mC]*e[5mC]*k[5mC]*d[5mC]*dA*dA*dG*dA*dA*dG*dA*dG*dT*kT*kT*eG; antisense) [compound 548019]	24
548020 (eT*e[5mC]*k[5mC]*d[5mC]*d[5mC]*dA*dA*dG*dA*dA*dG*dA*dG*kT*kT*eT; antisense) [compound 548020]	76
548021 (e[5mC]*eA*k[5mC]*dT*d[5mC]*dT*d[5mC]*d[5mC]*d[5mC]*d[5mC]*dA*dA*dG*kA*kA*eG; antisense) [compound 548021]	0
548022 (e[5mC]*e[5mC]*kA*d[5mC]*dT*d[5mC]*dT*d[5mC]*d[5mC]*d[5mC]*d[5mC]*dA*dA*kG*kA*eA; antisense) [compound 548022]	69
548023 (eG*e[5mC]*kT*dT*d[5mC]*dA*d[5mC]*d[5mC]*dT*dG*d[5mC]*dA*dG*kG*k[5mC]*eT; antisense) [compound 548023]	58
548025 (eT*eG*kA*dG*d[5mC]*dT*dG*dT*d[5mC]*dA*dG*d[5mC]*dT*kT*k[5mC]*eA; antisense) [compound 548025]	66
548026 (eG*eT*k[5mC]*d[5mC]*dT*dA*dT*dG*dA*dG*dT*dG*dA*k[5mC]*k[5mC]*e[5mC]; antisense) [compound 548026]	52
548027 (eG*eT*kG*dT*d[5mC]*d[5mC]*dT*dA*dT*dG*dA*dG*dT*kG*kA*e[5mC]; antisense) [compound 548027]	18
548028 (eG*eG*kT*dG*dT*d[5mC]*d[5mC]*dT*dA*dT*dG*dA*dG*kT*kG*eA; antisense) [compound 548028]	38
548029 (eT*eG*kG*dT*dG*dT*d[5mC]*d[5mC]*dT*dA*dT*dG*dA*kG*kT*eG; antisense) [compound 548029]	12
548030 (e[5mC]*eT*kG*dG*dT*dG*dT*d[5mC]*d[5mC]*dT*dA*dT*dG*kA*kG*eT; antisense) [compound 548030]	52

Substance	% inhibition [%]
548031 (eG*eA*kT*dG*d[5mC]*dG*d[5mC]*d[5mC]*dA*dA*dA*d[5mC]*dA*kT*k[5mC]*e[5mC]; antisense) [compound 548031]	73
548032 (eA*eG*kA*dT*dG*d[5mC]*dG*d[5mC]*d[5mC]*dA*dA*dA*d[5mC]*kA*kT*e[5mC]; antisense) [compound 548032]	51
548034 (eA*eT*kA*dG*dA*dT*dG*d[5mC]*dG*d[5mC]*d[5mC]*dA*dA*kA*k[5mC]*eA; antisense) [compound 548034]	31
548035 (e[5mC]*eA*k[5mC]*dT*dA*dT*dA*dG*dA*dT*dG*d[5mC]*dG*k[5mC]*k[5mC]*eA; antisense) [compound 548035]	44
548036 (e[5mC]*e[5mC]*kA*d[5mC]*dT*dA*dT*dA*dG*dA*dT*dG*d[5mC]*kG*k[5mC]*e[5mC]; antisense) [compound 548036]	74
548037 (eA*eA*kT*dG*dT*d[5mC]*dT*dG*dA*d[5mC]*dA*dG*dA*kT*kT*eT; antisense) [compound 548037]	70
548038 (eT*eA*kA*dT*dG*dT*d[5mC]*dT*dG*dA*d[5mC]*dA*dG*kA*kT*eT; antisense) [compound 548038]	67
548039 (eG*eA*kA*dA*dG*dG*dT*dG*dT*dA*dT*d[5mC]*dT*kT*kT*eT; antisense) [compound 548039]	29
548040 (eG*eT*kG*dA*dG*dA*dA*dA*dG*dG*dT*dG*dT*kA*kT*e[5mC]; antisense) [compound 548040]	62
548041 (eT*eG*kT*dG*dA*dG*dA*dA*dA*dG*dG*dT*dG*kT*kA*eT; antisense) [compound 548041]	64
548042 (eT*eT*kT*dG*dT*dG*dA*dG*dA*dA*dA*dG*dG*kT*kG*eT; antisense) [compound 548042]	63
548044 (eT*eG*kG*dT*dG*dA*dA*dT*dA*dA*dT*dA*dA*kT*k[5mC]*eT; antisense) [compound 548044]	12
548045 (eT*eT*kA*dT*dA*dG*dT*dT*dT*dT*dG*dG*dT*kG*kA*eA; antisense) [compound 548045]	0
548049 (eG*e[5mC]*kG*dA*dT*dA*dT*d[5mC]*dA*dT*dG*dA*dT*kT*k[5mC]*e[5mC]; antisense) [compound 548049]	62
548050 (eA*eG*kG*d[5mC]*dG*dA*dT*dA*dT*d[5mC]*dA*dT*dG*kA*kT*eT; antisense) [compound 548050]	37
548051 (eA*eA*kG*dG*d[5mC]*dG*dA*dT*dA*dT*d[5mC]*dA*dT*kG*kA*eT; antisense) [compound 548051]	61
548052 (e[5mC]*eA*kA*dA*dG*dG*dA*dG*d[5mC]*d[5mC]*dT*dG*dG*kA*kG*eT; antisense) [compound 548052]	43
548053 (eA*eT*kT*d[5mC]*dA*dA*dA*dG*dG*dA*dG*d[5mC]*d[5mC]*kT*kG*eG; antisense) [compound 548053]	36
548054 (eA*eA*kT*dT*d[5mC]*dA*dA*dA*dG*dG*dA*dG*d[5mC]*k[5mC]*kT*eG; antisense) [compound 548054]	45
548056 (eG*eT*kG*dT*dA*dA*dT*dT*d[5mC]*dA*dA*dA*dG*kG*kA*eG; antisense) [compound 548056]	40
548057 (e[5mC]*eA*kT*dA*dT*dT*dG*dG*dT*dT*dT*dT*dT*kG*kG*eA; antisense) [compound 548057]	49
548058 (eG*e[5mC]*kA*dT*dA*dT*dT*dG*dG*dT*dT*dT*dT*kT*kG*eG; antisense) [compound 548058]	71
548059 (eT*eA*kG*dG*d[5mC]*dA*dT*dA*dT*dT*dG*dG*dT*kT*kT*eT; antisense) [compound 548059]	50
548060 (e[5mC]*eT*kT*dG*dT*dG*dT*d[5mC]*dA*d[5mC]*d[5mC]*dT*dT*kT*kG*eG; antisense) [compound 548060]	76
548062 (eA*eT*kA*dA*dA*dT*dT*dG*dT*dG*d[5mC]*dT*dT*kG*kT*eG; antisense) [compound 548062]	19
548063 (eG*eT*kA*dT*dA*dA*dA*dT*dT*dG*dT*dG*d[5mC]*kT*kT*eG; antisense) [compound 548063]	35
